Measurements: patent US12195469B2, “Compounds having PDE9A inhibitory activity, and pharmaceutical uses thereof” (KOREA RESEARCH INSTITUTE OF CHEMICAL TECHNOLOGY, priority 2018, dated 2025)
pIC50: −log10 of the molar value.

The compounds below were run against PDE9A (Homo sapiens (Human), UniProt O76083) (assay: PDE9A inhibition, fluorescence polarization assay (IMAP-FP screening express kit)). Conditions: 10 μM of the compound.
Format: biochemical
Procedure: The inhibitory activity of the representative compounds according to the present invention against phosphodiesterase 9A was tested based on the polarization assay (IMAP-FP screening express kit) provided by MDS (MDS Analytical Technologies, Sunyvale, CA, USA). As a buffer solution, a reaction solution (a reaction solution containing 0.01% Tween 20 provided by MDS was diluted 5 times, then 5 mM DTT is added) and a polarization detection solution (binding solution A and B provided by MDS were mixed at a ratio of 3:1 and IMAP binding reagent 1/600 was added) were prepared. 100 μM of the substrate (Fl-cGMP substrate; MDS) and 3.6 μg/ml of the enzyme PDE9A (ab54113; abcam) were prepared. 3.6 μg/ml PDE9A and 100 μM substrate were diluted to 20 ng/ml (final reaction concentration: 5 ng/ml) and 400 nM (final reaction concentration: 100 nM), respectively. The buffer solution used for all dilution and preparation processes was 1× reaction solution with 1 mM DTT added, and the polarization detection solution was used to induce polarization at the end.
The prepared samples were dispensed on black microplates (Multiwell 384 well plates, #3573, Corning Life Sciences, Lowell, MA, USA) using a 16-channel pipette (multi 16-channel, Finnpipette, Thermo Scientific, Essex, UK). The total reaction volume per well is 20 μl. At this time, 10 μl of 2% DMSO, 5 μl of substrate solution, and 5 μl of reaction solution were used as a negative control, and 10 μl of 2% DMSO, 5 μl of substrate solution, and 5 μl of PDE9A solution were used as a positive control. As the experimental group, 10 μl of the compound prepared in Example, 5 μl of the substrate solution, and 5 μl of the PDE9A solution were used. After pretreatment between the compound and the enzyme was performed for about 10 minutes before the enzyme-substrate reaction, 5 μl of cGMP was added to induce the enzyme reaction. During the reaction, each compound, enzyme, and substrate occupied 50%, 25%, and 25% of the total volume, respectively, and they were prepared at high concentrations of 2, 4, and 4 times, respectively, immediately before addition. After the enzymatic reaction, it was shaken lightly for 1 minute and the enzyme reaction was induced at room temperature for 1 hour. Then, 60 μl of a polarization detection solution prepared in advance was added to induce polarization.
Nanoparticles composed of trivalent metal ions are mixed in the fluorescence detection solution, which combines with phosphoric acid expose by enzymatic reaction to increase the molecular weight and induce polarization. After leaving for 2 hours at room temperature, the polarization (Fluorescence Polarization, FP) value was measured using a multilabel counter (Envision, PerkinElmer, Turku, Finland) (emission wavelength: P-535 nm, S-535 nm, excitation wavelength: 480 nm), and the result was expressed as an IC50 value, which is the concentration of the compound that inhibited PDE9A by 50% in vitro (Table 2).

Sequence of PDE9A (O76083 whole entry): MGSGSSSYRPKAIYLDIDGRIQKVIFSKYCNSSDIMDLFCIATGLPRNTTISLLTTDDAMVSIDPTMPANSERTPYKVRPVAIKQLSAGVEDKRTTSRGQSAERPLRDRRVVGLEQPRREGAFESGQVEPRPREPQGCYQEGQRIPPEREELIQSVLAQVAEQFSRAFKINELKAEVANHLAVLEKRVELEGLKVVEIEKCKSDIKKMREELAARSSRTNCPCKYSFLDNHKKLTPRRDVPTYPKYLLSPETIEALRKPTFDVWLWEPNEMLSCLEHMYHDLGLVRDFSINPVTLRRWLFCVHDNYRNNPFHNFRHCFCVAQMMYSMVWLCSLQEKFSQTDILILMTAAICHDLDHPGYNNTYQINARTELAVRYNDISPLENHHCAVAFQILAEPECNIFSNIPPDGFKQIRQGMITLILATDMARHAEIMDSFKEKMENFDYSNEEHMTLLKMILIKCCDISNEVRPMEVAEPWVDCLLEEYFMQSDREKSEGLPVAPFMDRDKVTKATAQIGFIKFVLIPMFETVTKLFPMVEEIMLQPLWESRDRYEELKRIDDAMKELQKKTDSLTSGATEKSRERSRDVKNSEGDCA

Compared with O=c1[nH]c(SCc2nc3ccc([N+](=O)[O-])cc3o2)nc2c1cnn2-c1ccccc1 [Example 28, 6-(((6-nitrobenzo[d]oxazol-2-yl)methyl)thio)-1-phenyl-1,5-dihydro-4H-pyrazolol[3,4-d]pyrimidin-4-one], O=c1[nH]c(SCc2nc3cc(Cl)cc(Cl)c3o2)nc2c1cnn2-c1ccccc1 [Example 32, 6-(((5,7-dichlorobenzo[d]oxazol-2-yl)methyl)thio)-1-phenyl-1,5-dihydro-4H-pyrazolo[3,4-d]pyrimidin-4-one] is lower in inhibition at 10 µM: 51.5% for the first, 27.7% for the second.

Same assay, conditions: Fl-cGMP substrate 100 nM, PDE9A 5 ng/ml, 1 hour at room temperature

First: O=c1[nH]c(SCc2nc3cc(Cl)ccc3o2)nc2c1cnn2-c1ccccc1 [Example 6, 6-(((5-chlorobenzo[d]oxazol-2-yl)methyl)thio)-1-phenyl-1,5-dihydro-4H-pyrazolo[3,4-d]pyrimidin-4-one]
Second: Cc1ccc2oc(CSc3nc4c(cnn4-c4ccccc4)c(=O)[nH]3)nc2c1 [Example 3, 6-(((5-methylbenzo[d]oxazol-2-yl)methyl)thio)-1-phenyl-1,5-dihydro-4H-pyrazolo[3,4-d]pyrimidin-4-one]
The pIC50 of the first is 0.37 log units lower: 6.72 for the first, 7.09 for the second. The second is the more potent here.

First: O=c1[nH]c(SCc2nc3cc(Cl)c([N+](=O)[O-])cc3o2)nc2c1cnn2C1CCOCC1 [Example 51, 6-(((5-chloro-6-nitrobenzo[d]oxazol-2-yl)methyl)thio)-1-(tetrahydro-2H-pyran-4-yl)-1,5-dihydro-4H-pyrazolo[3,4-d]pyrimidin-4-one]
Second: O=c1[nH]c(SCc2nc3cc(Cl)c([N+](=O)[O-])cc3o2)nc2c1cnn2C1CCC(F)(F)CC1 [Example 40, 6-(((5-chloro-6-nitrobenzo[d]oxazol-2-yl)methyl)thio)-1-(4,4-difluorocyclohexyl)-1,5-dihydro-4H-pyrazolo[3,4-d]pyrimidin-4-one]
The pIC50 of the first is 1.68 log units higher: 7.46 for the first, 5.78 for the second. The first is the more potent here.

CC(C)(C)c1ccc2oc(CSc3nc4c(cnn4C4CCC(F)(F)CC4)c(=O)[nH]3)nc2c1 [Example 42, 6-(((5-(tert-butyl)benzo[d]oxazol-2-yl)methyl)thio)-1-(4,4-difluorocyclohexyl)-1,5-dihydro-4H-pyrazolo[3,4-d]pyrimidin-4-one] and O=c1[nH]c(SCc2nc3cc(C(F)(F)F)ccc3o2)nc2c1cnn2C1CCC(F)(F)CC1 [Example 47, 1-(4,4-difluorocyclohexyl)-6-(((5-(trifluoromethyl)benzo[d]oxazol-2-yl)methyl)thio)-1,5-dihydro-4H-pyrazolo[3,4-d]pyrimidin-4-one] are within 0.2 log units of each other in pIC50: 6.89 for the first, 6.92 for the second.

Compared with Cc1cc(C)c2oc(CSc3nc4c(cnn4-c4ccccc4)c(=O)[nH]3)nc2c1 [Example 33, 6-(((5,7-dimethylbenzo[d]oxazol-2-yl)methyl)thio)-1-phenyl-1,5-dihydro-4H-pyrazolo[3,4-d]pyrimidin-4-one], Cc1ccc2nc(CSc3nc4c(cnn4-c4ccccc4)c(=O)[nH]3)oc2c1 [Example 5, 6-(((6-methylbenzo[d]oxazol-2-yl)methyl)thio)-1-phenyl-1,5-dihydro-4H-pyrazolol[3,4-d]pyrimidin-4-one] is 1.29 log units higher in pIC50: 6.02 for the first, 7.31 for the second.

COc1ccc2nc(CSc3nc4c(cnn4C4CCOCC4)c(=O)[nH]3)oc2c1 [Example 56, 6-(((6-methoxybenzo[d]oxazol-2-yl)methyl)thio)-1-(tetrahydro-2H-pyran-4-yl)-1,5-dihydro-4H-pyrazolo[3,4-d]pyrimidin-4-one] and COc1ccc2nc(CSc3nc4c(cnn4C4CCC(F)(F)CC4)c(=O)[nH]3)oc2c1 [Example 46, 1-(4,4-difluorocyclohexyl)-6-(((6-methoxybenzo[d]oxazol-2-yl)methyl)thio)-1,5-dihydro-4H-pyrazolo[3,4-d]pyrimidin-4-one] are the same in pIC50: 8.52 for the first, 8.52 for the second.

Going from O=c1[nH]c(SCc2nc3cc([N+](=O)[O-])ccc3o2)nc2c1cnn2C1CCOCC1 [Example 49, 6-(((5-nitrobenzo[d]oxazol-2-yl)methyl)thio)-1-(tetrahydro-2H-pyran-4-yl)-1,5-dihydro-4H-pyrazolo[3,4-d]pyrimidin-4-one] to O=c1[nH]c(SCc2nc3ccccc3o2)nc2c1cnn2C1CCOCC1 [Example 1, 6-((benzo[d]oxazol-2-ylmethyl)thio)-1-(tetrahydro-2H-pyran-4-yl)-1,5-dihydro-4H-pyrazolo[3,4-d]pyrimidin-4-one], the pIC50 rises from 7.49 to 8.30 (0.81 log units).

Going from Cc1ccc2nc(CSc3nc4c(cnn4C4CCSCC4)c(=O)[nH]3)oc2c1 [Example 15, 6-(((6-methylbenzo[d]oxazol-2-yl)methyl)thio)-1-(tetrahydro-2H-thiopyran-4-yl)-1,5-dihydro-4H-pyrazolo[3,4-d]pyrimidin-4-one] to Cc1ccc2nc(CSc3nc4c(cnn4C4CC4)c(=O)[nH]3)oc2c1 [Example 17, 6-(((6-methylbenzo[d]oxazol-2-yl)methyl)thio)-1-cyclopropyl-1,5-dihydro-4H-pyrazolo[3,4-d]pyrimidin-4-one], the pIC50 falls from 8.00 to 6.72 (1.28 log units). The first is the more potent here.

Going from O=c1[nH]c(SCc2nc3ccccc3o2)nc2c1cnn2C1CCSCC1 [Example 9, 6-((benzo[d]oxazol-2-ylmethyl)thio)-1-(tetrahydro-2H-thiopyran-4-yl)-1,5-dihydro-4H-pyrazolo[3,4-d]pyrimidin-4-one] to Cc1cccc2oc(CSc3nc4c(cnn4C4CCOCC4)c(=O)[nH]3)nc12 [Example 52, 6-(((4-methylbenzo[d]oxazol-2-yl)methyl)thio)-1-(tetrahydro-2H-pyran-4-yl)-1,5-dihydro-4H-pyrazolo[3,4-d]pyrimidin-4-one], the pIC50 falls from 8.22 to 7.77 (0.45 log units).

First: O=c1[nH]c(SCc2nc3cc(Cl)cc(Cl)c3o2)nc2c1cnn2C1CCC(F)(F)CC1 [Example 43, 6-(((5,7-dichlorobenzo[d]oxazol-2-yl)methyl)thio)-1-(4,4-difluorocyclohexyl)-1,5-dihydro-4H-pyrazolo[3,4-d]pyrimidin-4-one]
Second: O=c1[nH]c(SCc2nc3cc(Cl)cc(Cl)c3o2)nc2c1cnn2C1CCOCC1 [Example 54, 6-(((5,7-dichlorobenzo[d]oxazol-2-yl)methyl)thio)-1-(tetrahydro-2H-pyran4-yl)-1,5-dihydro-4H-pyrazolo[3,4-d]pyrimidin-4-one]
The pIC50 of the first is 0.80 log units lower: 6.92 for the first, 7.72 for the second. The second is the more potent here.

O=c1[nH]c(SCc2nc3c([N+](=O)[O-])cccc3o2)nc2c1cnn2-c1ccccc1 [Example 30, 6-(((4-nitrobenzo[d]oxazol-2-yl)methyl)thio)-1-phenyl-1,5-dihydro-4H-pyrazolo[3,4-d]pyrimidin-4-one] and O=c1[nH]c(SCc2nc3cc([N+](=O)[O-])ccc3o2)nc2c1cnn2-c1ccccc1 [Example 29, 6-(((5-nitrobenzo[d]oxazol-2-yl)methyl)thio)-1-phenyl-1,5-dihydro-4H-pyrazolo[3,4-d]pyrimidin-4-one] are within 0.2 log units of each other in pIC50: 5.76 for the first, 5.62 for the second.

First: Cc1ccc2nc(CSc3nc4c(cnn4C4CCC(F)(F)CC4)c(=O)[nH]3)oc2c1 [Example 13, 6-(((6-methylbenzo[d]oxazol-2-yl)methyl)thio)-1-(4,4-difluorocyclohexyl)-1,5-dihydro-4H-pyrazolo[3,4-d]pyrimidin-4-one]
Second: CC(Sc1nc2c(cnn2C2CCC(F)(F)CC2)c(=O)[nH]1)c1nc2ccccc2o1 (stereo not drawn) [Example 20]
The pIC50 of the first is 0.30 log units lower: 7.92 for the first, 8.22 for the second. The second is the more potent here.

Going from COc1ccc2oc(CSc3nc4c(cnn4-c4ccccc4)c(=O)[nH]3)nc2c1 [Example 34, 6-(((5-methoxybenzo[d]oxazol-2-yl)methyl)thio)-1-phenyl-1,5-dihydro-4H-pyrazolo[3,4-d]pyrimidin-4-one] to CC(C)(C)c1ccc2oc(CSc3nc4c(cnn4-c4ccccc4)c(=O)[nH]3)nc2c1 [Example 27, 6-(((5-(tert-butyl)benzo[d]oxazol-2-yl)methyl)thio)-1-phenyl-1,5-dihydro-4H-pyrazolo[3,4-d]pyrimidin-4-one], the pIC50 falls from 6.92 to 5.18 (1.74 log units).

CC(Sc1nc2c(cnn2C2CCOCC2)c(=O)[nH]1)c1nc2ccccc2o1 (stereo not drawn) [Example 21] gave a pIC50 of 8.52.
